Active and inactive are the calls of the source.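 Rule for the calls: active = compounds whose fitted half-maximal concentration in the cell-protection dose series is at or below a set limit; inactive = the rest.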
Tested on: H9c2 cardiomyocytes, 2-deoxyglucose stress, ATP luminescence, 2 h
Assay: protection of cardiomyocytes from 2-deoxyglucose injury, dose response, cell-based, 2-deoxyglucose stress, uHTS hits (AID 588780)

SMILES | IC50
COc1cccc(-c2cnc3c(NC=O)cc(-c4cccc(C(=O)N(C)C)c4)cn23)c1 | 12.3 µM
O=C(N/N=C/c1ccc(-c2cccc([N+](=O)[O-])c2)o1)c1ccc([N+](=O)[O-])cc1 | > 79 µM (inactive)
C=CCOC(=O)COc1ccc2c3c(c(=O)oc2c1)CCCC3 | 28.1 µM
Cc1ccc(-c2n[nH]c(=O)c3ccccc23)cc1S(=O)(=O)NCC1CCCO1 (configuration not stated) | > 79 µM (inactive)
Cc1cc(O)c(C=Nc2ccc(N3CCOCC3)cc2)c(C)c1Cl | > 79 µM (inactive)
COc1cc(C(=O)N/N=C/c2ccc(OC(=O)c3ccccc3)c(OC)c2)ccc1O | > 79 µM (inactive)
COc1cc(-c2cc(NC=O)c3ncc(-c4ccc(C(C)=O)cc4)n3c2)ccc1O | > 79 µM (inactive)
COC(=O)/C=C/c1ccc(OC(=O)OC)c(OC(=O)OC)c1 | > 79 µM (inactive)
O=C(Cn1[nH]c(=O)c2ccccc2c1=O)NNC(=O)c1ccccc1 | 9.4 µM
Cn1c(C(=O)Nc2ccc3c(c2)OCCO3)cc2c(=O)n(C)c3ccccc3c21 | > 79 µM (inactive)
COc1cc(-c2cnc3c(NC=O)cc(-c4ccsc4)cn23)cc(OC)c1OC | > 79 µM (inactive)
O=C(COC(=O)c1ccccc1C(=O)OCC(=O)NCCc1c[nH]c2ccccc12)NCCc1c[nH]c2ccccc12 | > 79 µM (inactive)
CCOC(=O)c1cccc(Nc2nc(-c3cccnc3)nc3ccccc23)c1 | 29.1 µM
O=C(COc1cccc(F)c1)Nc1nc(-c2ccccn2)cs1 | 30.9 µM (inactive)
COc1ccc(-c2cc(=O)oc3cc(OC(=O)C4CCCCC4)ccc23)cc1 | 31.7 µM (inactive)
COc1cc(-c2cc(NC=O)c3ncc(-c4cccc(C(F)(F)F)c4)n3c2)cc(OC)c1OC | > 79 µM (inactive)
CSCC[C@H](NC(=O)OC(C)(C)C)C(=O)N/N=C/c1cccc2cccnc12 | 30.9 µM (inactive)
COC(=O)Oc1ccc(/C=C/C(=O)OC(C)C)cc1OC(=O)OC | 63.1 µM (inactive)
Cc1nc(N2CCN(c3ccccn3)CC2)c2c(C)c(C(=O)Nc3ccccc3F)sc2n1 | 10.5 µM
Cn1c(=O)[nH]c(=O)c2c1nc(NCCc1ccccc1)n2CC(O)COc1ccccc1 (configuration not stated) | > 79 µM (inactive)
O=C(COc1ccc([N+](=O)[O-])cc1)Nc1nc(-c2ccccn2)cs1 | > 79 µM (inactive)
CCOC(=O)c1c(NC(=O)COC(=O)c2ccc(O)cc2)sc(C(=O)N(C)C)c1C | > 79 µM (inactive)
COc1ccc(-c2csc(NC(=O)CCCc3nc4ccccc4c(=O)[nH]3)n2)cc1OC | 25.3 µM

SMILES | IC50
CCOC(=O)C1=c2s/c(=C\c3ccncc3)c(=O)n2C(N)=C(C(=O)OC)C1c1ccncc1 (configuration not stated) | > 79 µM (inactive)
CC(=NO)C1CCC2C3CCC4CC(=NO)CCC4(C)C3C(C)(O)CC12C (configuration not stated) | 14.9 µM
O=C(Nc1cccc2cccnc12)c1ccc2sc([C@H]3C[C@H](O)[C@@H](CO)O3)nc2c1 | 14.3 µM
C[C@H]1Cn2cnc(C(=O)N[C@@H](Cc3c[nH]c4ccccc34)C(=O)OC(C)(C)C)c2C(=O)N1 | 21 µM
CCCCn1nc(NC(=O)c2cccs2)c2cc3cc(OC)ccc3nc21 | > 79 µM (inactive)
Cc1ccc(-c2nnc(NCc3nc4ccccc4[nH]3)c3ccccc23)cc1S(=O)(=O)N1CCOCC1 | > 79 µM (inactive)
Cc1cc(CNC(=O)COC(=O)Cn2[nH]c(=O)c3ccccc3c2=O)cc(C)c1O | 15.4 µM
O=C(CCc1nc2ccccc2c(=O)[nH]1)OCC(=O)N1CCc2ccccc21 | > 79 µM (inactive)
O=C(c1ccco1)N1CCN(Cc2nc3ccc([N+](=O)[O-])cc3c(=O)n2-c2ccccc2F)CC1 | > 79 µM (inactive)
CC(=NCCCn1ccnc1)c1c(-c2ccccc2)[nH]n(-c2nc3ccccc3s2)c1=O | > 79 µM (inactive)
O=C(Cn1[nH]c(=O)c2ccccc2c1=O)NC1CCN(Cc2ccccc2)CC1 | > 79 µM (inactive)
CCOC(=O)c1c(C)[nH]c(C(=O)COc2ccc3ccc(=O)oc3c2)c1C | > 79 µM (inactive)
COc1ccc(-n2c(C)c(C(C)=O)c3cc(OC(C)=O)ccc32)cc1 | 25.2 µM
Cc1cc(C)cc(C(=O)Nc2ccc(NC(=O)c3cccs3)cc2)c1 | > 79 µM (inactive)
CCN1CCN(c2nc3c(c(=O)[nH]2)CCCC3)CC1 | > 79 µM (inactive)
COc1ccc(CCCNC(=O)C2(C)Cc3c(-c4ccc(NC(C)=O)cc4)ccnc3O2)cc1 (configuration not stated) | > 79 µM (inactive)
O=C(COC(=O)CCc1nc2ccccc2c(=O)[nH]1)NCc1ccc(F)cc1 | > 79 µM (inactive)
FC(F)(F)c1nnc2ccc(N3CCCC3)nn12 | > 79 µM (inactive)
COc1ccccc1OCCSc1nc2ccccc2c(=O)[nH]1 | > 79 µM (inactive)
CCOC(=O)C1CCN(c2cc3c(cc2NC(=O)c2ccccc2Cl)n(C)c(=O)n3C)CC1 | 11.7 µM
COC(=O)c1ccc(CSc2ccc3nnc(-c4cccc(F)c4)n3n2)o1 | 27.4 µM
N#Cc1ccccc1S(=O)(=O)N1CCN(c2nc(-c3cccnc3)nc3ccccc23)CC1 | > 79 µM (inactive)
CN(C)S(=O)(=O)c1cccc(NC(=O)COC(=O)c2ccc([N+](=O)[O-])o2)c1 | > 79 µM (inactive)

SMILES | IC50
COc1ccc(-c2cc(C(F)F)n3ncc(C(=O)Nc4ccc(C(=O)N5CCOCC5)cc4)c3n2)cc1 | > 79 µM (inactive)
CCOC(=O)C1CCN(c2cc3c(cc2NC(=O)c2ccccc2Br)n(C)c(=O)n3C)CC1 | 45.5 µM (inactive)
COc1ccc(OCC(O)Cn2c(Nc3cccc(C)c3)nc3c2c(=O)n(C)c(=O)n3C)cc1 (configuration not stated) | > 79 µM (inactive)
COc1cccc(-c2ccc(SCC(=O)N3CCN(c4ccccc4)CC3)nn2)c1 | > 79 µM (inactive)
COc1cc(-c2cc(NC(C)=O)c3ncc(-c4cc(OC)c(OC)c(OC)c4)n3c2)cc(OC)c1OC | 5.28 µM
Cc1nc(N2CCN(c3ccccn3)CC2)c2c(C)c(C(=O)Nc3ccc(F)cc3)sc2n1 | > 79 µM (inactive)
Cc1noc(C)c1COC(=O)COc1ccc2c(C)cc(=O)oc2c1 | > 79 µM (inactive)
CC(=O)Nc1cc(-c2ccccc2)cn2c(-c3cccc(C(C)=O)c3)cnc12 | 17.8 µM
C[C@H](CO)N1C[C@H](C)[C@@H](CN(C)S(=O)(=O)c2ccccc2)Oc2ccc(NC(=O)Nc3ccccc3)cc2C1=O | 24.2 µM
COc1cc2c(cc1OC)CN(c1nc(-c3cccnc3)nc3ccccc13)CC2 | > 79 µM (inactive)
O=c1c2ccccc2nc2c3ccccc3c(NCCO)nn12 | 45.5 µM (inactive)
CC1(C(=O)Nc2cccc(OC(F)(F)F)c2)Cc2c(-c3ccc(C(N)=O)cc3)ccnc2O1 (configuration not stated) | > 79 µM (inactive)
NC(=O)c1cccc2c1C(=O)N(C1CCCCC1)C2 | > 79 µM (inactive)
O=C(N/N=C/c1ccccn1)c1cc(-c2ccc(Cl)s2)[nH]n1 | > 79 µM (inactive)
Cc1ccc(NC(=O)CCCc2nc3ccccc3c(=O)[nH]2)c(Cl)c1 | 40 µM (inactive)
CCC(CC)C(=O)N(CCc1ccc(OC)cc1)Cc1nc2ccccc2c(=O)[nH]1 | > 79 µM (inactive)
Nc1cc2[nH]c(=O)c3ccccc3c2cc1Br | > 79 µM (inactive)
O=C(CN1CCN(c2ccccc2F)CC1)c1ccc(O)c(O)c1 | > 79 µM (inactive)
O=c1cc(-c2ccncc2)oc2ccccc12 | > 79 µM (inactive)
CC(=O)c1cccc(NC(=O)C(C)OC(=O)CCc2nc3ccccc3c(=O)[nH]2)c1 (configuration not stated) | > 79 µM (inactive)
O=c1[nH]nc(Cc2ccc([N+](=O)[O-])cc2)c2ccccc12 | 29.5 µM

Reference: PubChem BioAssay AID588780 (Sanford-Burnham Center for Chemical Genomics, 2011)
